According to article PMC4053473 (Molecular cancer therapeutics, 2009):
Where no end group is shown, it is not given here.

Tests used:
[1] = in vivo; settings: SCID, mouse, iv, 5 uCi, total radioactivity
[2] = target: T1, H2009 cells (Homo sapiens, UniProt P06756+P18564); test: Cellular uptake of labeled peptide by confocal/fluorescence microscopy; format: cell-based; settings: for cellular uptake of peptide-Qdot conjugate (fluorescent/confocal microscopy): 20 nmol/L SAQdot605 conjugate, 10 min incubation
[3] = system: αvβ6; settings: cited from earlier work
[4] = target: T1, H2009 cells; test: Peptide blocking of cognate H2009.1 phage uptake on H2009 cells; format: cell-based; settings: Fig. 2B, 2D, Supplementary Data

T1 sequence (P06756 31-1048): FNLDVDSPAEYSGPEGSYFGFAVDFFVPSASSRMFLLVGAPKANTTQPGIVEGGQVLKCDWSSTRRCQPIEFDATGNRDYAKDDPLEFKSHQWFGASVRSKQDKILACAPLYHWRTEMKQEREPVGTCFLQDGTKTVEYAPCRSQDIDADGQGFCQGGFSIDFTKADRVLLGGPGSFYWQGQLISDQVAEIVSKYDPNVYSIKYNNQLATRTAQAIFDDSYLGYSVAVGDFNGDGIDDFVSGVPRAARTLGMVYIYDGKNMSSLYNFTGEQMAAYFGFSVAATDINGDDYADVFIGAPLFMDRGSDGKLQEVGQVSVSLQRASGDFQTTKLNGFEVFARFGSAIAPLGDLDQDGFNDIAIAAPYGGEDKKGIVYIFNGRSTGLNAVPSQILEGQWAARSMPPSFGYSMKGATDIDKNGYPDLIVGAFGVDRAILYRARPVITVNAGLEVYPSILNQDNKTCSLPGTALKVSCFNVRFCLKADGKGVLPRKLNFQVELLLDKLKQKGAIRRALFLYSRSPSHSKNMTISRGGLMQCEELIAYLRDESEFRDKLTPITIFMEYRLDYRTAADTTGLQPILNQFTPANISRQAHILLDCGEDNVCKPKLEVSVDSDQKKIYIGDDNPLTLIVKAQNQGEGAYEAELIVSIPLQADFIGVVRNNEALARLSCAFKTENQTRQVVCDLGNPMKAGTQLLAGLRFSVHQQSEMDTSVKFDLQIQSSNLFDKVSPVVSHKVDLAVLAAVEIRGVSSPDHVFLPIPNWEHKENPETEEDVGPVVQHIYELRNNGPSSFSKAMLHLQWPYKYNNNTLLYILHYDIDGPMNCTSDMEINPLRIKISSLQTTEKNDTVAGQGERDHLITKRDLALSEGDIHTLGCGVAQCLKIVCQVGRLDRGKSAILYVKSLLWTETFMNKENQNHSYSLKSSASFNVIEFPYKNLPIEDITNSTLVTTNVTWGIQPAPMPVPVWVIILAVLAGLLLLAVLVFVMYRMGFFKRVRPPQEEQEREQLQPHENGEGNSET
T1 sequence (P18564 22-788): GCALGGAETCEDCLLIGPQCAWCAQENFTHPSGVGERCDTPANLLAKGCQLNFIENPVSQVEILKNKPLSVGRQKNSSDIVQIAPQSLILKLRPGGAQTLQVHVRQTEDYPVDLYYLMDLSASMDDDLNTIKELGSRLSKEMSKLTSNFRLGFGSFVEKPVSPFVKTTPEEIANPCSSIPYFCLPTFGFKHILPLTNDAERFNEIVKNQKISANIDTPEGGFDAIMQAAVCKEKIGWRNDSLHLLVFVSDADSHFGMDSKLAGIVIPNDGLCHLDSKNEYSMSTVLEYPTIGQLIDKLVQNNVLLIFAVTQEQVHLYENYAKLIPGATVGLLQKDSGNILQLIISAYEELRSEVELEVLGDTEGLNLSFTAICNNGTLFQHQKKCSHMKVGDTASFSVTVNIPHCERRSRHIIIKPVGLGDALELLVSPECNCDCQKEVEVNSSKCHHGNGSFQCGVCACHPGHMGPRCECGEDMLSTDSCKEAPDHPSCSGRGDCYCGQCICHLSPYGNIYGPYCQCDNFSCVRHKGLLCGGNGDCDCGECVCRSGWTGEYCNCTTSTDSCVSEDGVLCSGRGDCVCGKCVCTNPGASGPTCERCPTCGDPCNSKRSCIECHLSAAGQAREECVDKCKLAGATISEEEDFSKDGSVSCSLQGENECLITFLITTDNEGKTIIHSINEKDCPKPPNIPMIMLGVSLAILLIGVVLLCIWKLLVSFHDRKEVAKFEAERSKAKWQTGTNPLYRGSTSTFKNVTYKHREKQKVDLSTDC

Row | Compound | cellular uptake of peptide-Qdot conjugate (fluorescent/confocal microscopy) [2] | ability to block phage uptake / binding affinity for H2009 cells (in words) [4] | other results
1 | CC(C)C[C@H](NC(=O)[C@H](CCC(N)=O)NC(=O)[C@H](CCCNC(=N)N)NC(=O)[C@H](CC(C)C)NC(=O)[C@@H](NC(=O)[C@H](C)NC(=O)[C@H](CC(C)C)NC(=O)[C@H](CC(=O)O)NC(=O)CNC(=O)[C@@H](N)CCCNC(=N)N)[C@@H](C)O)C(=O)NCCOCCOCCOCCOCCOCCOCCOCCOCCOCCOCCOCCOCCC(=O)N[C@@H](CSC1CC(=O)N(CCC(=O)NCCCC[C@H](NC(=O)CCN2C(=O)CC(SC[C@H](NC(=O)CCOCCOCCOCCOCCOCCOCCOCCOCCOCCOCCOCCOCCNC(=O)[C@H](CC(C)C)NC(=O)[C@H](CCC(N)=O)NC(=O)[C@H](CCCNC(=N)N)NC(=O)[C@H](CC(C)C)NC(=O)[C@@H](NC(=O)[C@H](C)NC(=O)[C@H](CC(C)C)NC(=O)[C@H](CC(=O)O)NC(=O)CNC(=O)[C@@H](N)CCCNC(=N)N)[C@@H](C)O)C(N)=O)C2=O)C(=O)NCCCC[C@H](NC(=O)[C@H](CCCCNC(=O)CCN2C(=O)CC(SC[C@H](NC(=O)CCOCCOCCOCCOCCOCCOCCOCCOCCOCCOCCOCCOCCNC(=O)[C@H](CC(C)C)NC(=O)[C@H](CCC(N)=O)NC(=O)[C@H](CCCNC(=N)N)NC(=O)[C@H](CC(C)C)NC(=O)[C@@H](NC(=O)[C@H](C)NC(=O)[C@H](CC(C)C)NC(=O)[C@H](CC(=O)O)NC(=O)CNC(=O)[C@@H](N)CCCNC(=N)N)[C@@H](C)O)C(N)=O)C2=O)NC(=O)CCN2C(=O)CC(SC[C@H](NC(=O)CCOCCOCCOCCOCCOCCOCCOCCOCCOCCOCCOCCOCCNC(=O)[C@H](CC(C)C)NC(=O)[C@H](CCC(N)=O)NC(=O)[C@H](CCCNC(=N)N)NC(=O)[C@H](CC(C)C)NC(=O)[C@@H](NC(=O)[C@H](C)NC(=O)[C@H](CC(C)C)NC(=O)[C@H](CC(=O)O)NC(=O)CNC(=O)[C@@H](N)CCCNC(=N)N)[C@@H](C)O)C(N)=O)C2=O)C(=O)N[C@@H](CSC2CC(=O)N(CCNC(=O)CN3CCN(CC(=O)O)CCN(CC(=O)O)CCN(CC(=O)O)CC3)C2=O)C(=O)NCCC(=O)O)C1=O)C(N)=O (stereo partly shown) [111In-labeled H2009.1 peptide, metal not drawn] |  |  | tissue uptake at 4 h [1]: 0.84 ± 0.11 %ID/g
2 | GFTTGRRGDLATIHGMNPF [A20LAP] |  |  | affinity for αvβ6 [3]: low nanomolar range
3 | RGDLATL [H2009.1 7-mer peptide] |  | retains full activity | 
4 | YAAWPASGAWTGTAPC-SAGT [H1299.2-Qdot conjugate] | no uptake |  | localization of β6 integrin after treatment with peptide-Qdot conjugate ([2]; 10-min incubation, fixed, permeabilized, stained for β6): β6 remains localized on the cell surface

Second part, led by results:

Row | cellular uptake of peptide-Qdot conjugate (fluorescent/confocal microscopy) [2] | ability to block phage uptake / binding affinity for H2009 cells (in words) [4] | Compound | other results
5 | No uptake |  | DALRLQGTLR [scrambled H2009.1 peptide] | 
6 |  | significantly reduced affinity | RGDLATLRQL-OH | 
